Reference: patent US11339130B1 (Blade Therapeutics, Inc., priority 2016, dated 2022)
Where two headings read alike, the source gives them in different places.

What was measured:
Human Calpain 1/NS1 = target: T1, Human Calpain 1/NS1 (Homo sapiens, UniProt P07384); assay: Calpain inhibition continuous fluorescence (FRET) assay, Human Calpain 1/NS1; format: biochemical; details: read-out: Human Calpain 1/NS1 IC50
T1 sequence (P07384 1-714): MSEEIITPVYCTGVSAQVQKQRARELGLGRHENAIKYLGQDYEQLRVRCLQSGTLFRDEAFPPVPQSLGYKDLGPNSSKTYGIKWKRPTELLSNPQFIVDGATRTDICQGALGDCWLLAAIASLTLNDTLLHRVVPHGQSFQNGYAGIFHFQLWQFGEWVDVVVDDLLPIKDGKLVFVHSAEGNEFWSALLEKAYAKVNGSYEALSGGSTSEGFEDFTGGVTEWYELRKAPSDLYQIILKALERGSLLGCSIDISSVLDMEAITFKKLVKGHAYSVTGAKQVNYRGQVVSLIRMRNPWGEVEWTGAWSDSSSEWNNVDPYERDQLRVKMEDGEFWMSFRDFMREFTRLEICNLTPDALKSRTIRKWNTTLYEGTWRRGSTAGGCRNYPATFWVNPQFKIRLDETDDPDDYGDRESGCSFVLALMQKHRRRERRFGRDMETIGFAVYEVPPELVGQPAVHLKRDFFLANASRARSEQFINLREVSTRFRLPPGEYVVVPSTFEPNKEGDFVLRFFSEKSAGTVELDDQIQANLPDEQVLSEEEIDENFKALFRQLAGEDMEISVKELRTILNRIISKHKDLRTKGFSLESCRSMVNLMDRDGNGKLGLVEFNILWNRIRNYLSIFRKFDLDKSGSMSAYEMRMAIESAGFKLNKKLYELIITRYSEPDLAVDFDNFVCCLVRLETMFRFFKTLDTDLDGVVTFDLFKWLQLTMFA
T1 sequence (P04632 1-268 partner): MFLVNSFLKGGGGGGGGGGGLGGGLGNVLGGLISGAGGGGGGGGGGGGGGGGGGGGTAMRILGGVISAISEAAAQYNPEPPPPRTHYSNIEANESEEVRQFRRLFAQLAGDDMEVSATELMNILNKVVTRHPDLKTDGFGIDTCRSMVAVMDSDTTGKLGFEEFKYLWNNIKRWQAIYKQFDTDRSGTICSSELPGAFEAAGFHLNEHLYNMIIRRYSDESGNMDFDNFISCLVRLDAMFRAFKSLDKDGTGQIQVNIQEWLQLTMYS
In short: (§1)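 Inhibitors were preincubated with calpain in 50 mM Tris pH 7.5, 100 mM NaCl, 1 mM DTT at 25C. Reactions were started with 5-FAM/QXL 520 FRET peptide substrate plus CaCl2 and read at 490/520 nm for 10 min. IC50s came from 4-parameter fits of slope rates (1-5 min).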

Human Calpain 2/NS1 = target: T2, Human Calpain 2/NS1 (Homo sapiens, UniProt P17655); assay: Calpain inhibition continuous fluorescence (FRET) assay, Human Calpain 2/NS1; format: biochemical; details: read-out: Human Calpain 2/NS1 IC50
T2 sequence (P17655 1-700): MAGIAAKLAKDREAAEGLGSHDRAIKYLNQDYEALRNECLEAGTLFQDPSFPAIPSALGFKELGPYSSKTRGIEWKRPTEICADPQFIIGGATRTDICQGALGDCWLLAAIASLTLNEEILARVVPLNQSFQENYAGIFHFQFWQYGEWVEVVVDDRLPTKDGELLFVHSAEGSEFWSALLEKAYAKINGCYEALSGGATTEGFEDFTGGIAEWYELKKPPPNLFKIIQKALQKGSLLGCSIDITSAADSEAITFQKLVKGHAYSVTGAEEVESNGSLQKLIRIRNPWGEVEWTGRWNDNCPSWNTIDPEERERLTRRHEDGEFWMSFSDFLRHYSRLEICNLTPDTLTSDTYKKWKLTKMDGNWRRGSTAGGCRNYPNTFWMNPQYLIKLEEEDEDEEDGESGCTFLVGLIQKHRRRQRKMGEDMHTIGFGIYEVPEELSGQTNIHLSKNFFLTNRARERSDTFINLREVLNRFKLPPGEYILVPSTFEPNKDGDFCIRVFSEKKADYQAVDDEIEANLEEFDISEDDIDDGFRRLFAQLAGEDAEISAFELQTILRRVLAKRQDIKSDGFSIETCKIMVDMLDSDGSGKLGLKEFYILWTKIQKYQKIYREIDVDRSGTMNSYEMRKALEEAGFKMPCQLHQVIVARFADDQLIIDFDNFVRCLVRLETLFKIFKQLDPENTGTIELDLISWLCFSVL
T2 sequence (P04632 1-268 partner): T1 sequence (P04632 1-268 partner)
In short: as §1

Human Calpain 9/NS1 = target: T3, Human Calpain 9/NS1 (Homo sapiens, UniProt O14815); assay: Calpain inhibition continuous fluorescence (FRET) assay, Human Calpain 9/NS1; format: biochemical; details: read-out: Human Calpain 9/NS1 IC50
T3 sequence (O14815 1-690): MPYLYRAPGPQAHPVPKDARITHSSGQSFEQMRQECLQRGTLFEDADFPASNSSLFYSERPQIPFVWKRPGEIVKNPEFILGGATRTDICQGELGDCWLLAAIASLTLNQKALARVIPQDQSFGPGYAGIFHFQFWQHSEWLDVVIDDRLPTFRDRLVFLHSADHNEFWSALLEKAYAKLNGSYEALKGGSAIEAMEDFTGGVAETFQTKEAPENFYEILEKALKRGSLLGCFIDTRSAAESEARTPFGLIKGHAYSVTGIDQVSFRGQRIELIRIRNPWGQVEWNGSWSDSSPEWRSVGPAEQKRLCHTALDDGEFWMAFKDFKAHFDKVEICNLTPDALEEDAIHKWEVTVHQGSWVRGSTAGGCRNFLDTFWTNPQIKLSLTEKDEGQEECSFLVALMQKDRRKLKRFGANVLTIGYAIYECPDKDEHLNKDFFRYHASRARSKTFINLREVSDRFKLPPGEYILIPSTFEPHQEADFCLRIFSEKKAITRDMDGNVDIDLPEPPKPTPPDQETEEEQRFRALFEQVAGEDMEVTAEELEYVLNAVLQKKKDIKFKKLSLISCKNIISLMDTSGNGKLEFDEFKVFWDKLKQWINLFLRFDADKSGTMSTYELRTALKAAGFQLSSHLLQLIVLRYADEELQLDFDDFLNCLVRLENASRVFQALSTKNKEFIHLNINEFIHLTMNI
T3 sequence (P04632 1-268 partner): T1 sequence (P04632 1-268 partner)
In short: as §1

[1] = test system: Calpain activity in SH-SY5Y cells (SBDP-150); assay: SH-SY5Y Spectrin western blot assay (SBDP-150 breakdown product, A23187-induced); format: cell-based; details: Homo sapiens, SH-SY5Y cells, read-out: SH-SY5Y Spectrin IC50
[2] = test system: Calpain activity in SH-SY5Y cells; assay: SH-SY5Y + AMC fluorescence assay (Suc-LLVY-AMC substrate); format: cell-based; details: read-out: SH-SY5Y + AMC IC50
[3] = A23187-induced SBDP-150, western blot
[4] = Column D, A23187-induced SBDP-150

| SMILES | IC50 (Human Calpain 1/NS1) [µM] | IC50 (Human Calpain 2/NS1) [µM] | IC50 (Human Calpain 9/NS1) [µM] | IC50 [1, 3] [µM] | IC50 [2] [µM] | IC50 (Human Calpain 1/NS1; Column A) [µM] | IC50 (Human Calpain 2/NS1; Column B) [µM] | IC50 (Human Calpain 9/NS1; Column C) [µM] | IC50 [1, 4] [µM] | IC50 ([2]; Column E) [µM] |
| --- | --- | --- | --- | --- | --- | --- | --- | --- | --- | --- |
| Cn1cc(C(=O)NC(Cc2ccccc2)C(=O)C(N)=O)c(N2CCN(C(=O)OCc3ccccc3)CC2)n1 (stereo not shown) [Compound 601, Benzyl 4-(4-((4-amino-3,4-dioxo-1-phenylbutan-2-yl)carbamoyl)-1-methyl-1H-pyrazol-3-yl)piperazine-1-carboxylate] | 3 to 10 | < 3 | 3 to 10 | > 25 | > 25 |  |  |  |  |  |
| Cn1cc(C(=O)NC(Cc2ccccc2)C(=O)C(N)=O)c(Cn2ncc3cnccc32)n1 (stereo not shown) [Compound 408, 3-((1H-pyrazolo[4,3-c]pyridin-1-yl)methyl)-N-(4-amino-3,4-dioxo-1-phenylbutan-2-yl)-1-methyl-1H-pyrazole-4-carboxamide] | > 10 | 3 to 10 | > 10 | 10 to 25 | < 10 |  |  |  |  |  |
| Cn1cc(C(=O)N[C@@H](Cc2ccccc2)C(=O)C(N)=O)c(-c2ccc(F)cc2)n1 [Compound 179, (S)—N-(4-amino-3,4-dioxo-1-phenylbutan-2-yl)-3-(4-fluorophenyl)-1-methyl-1H-pyrazole-4-carboxamide] |  |  |  |  |  | < 3 | < 3 | < 3 | 10 to 25 | > 25 |
| NC(=O)C(=O)[C@H](Cc1ccccc1)NC(=O)c1cn(CC2CC2)nc1-c1ccccc1 [Compound 251, (S)—N-(4-amino-3,4-dioxo-1-phenylbutan-2-yl)-1-(cyclopropylmethyl)-3-phenyl-1H-pyrazole-4-carboxamide] |  |  |  |  |  | < 3 | < 3 | < 3 | > 25 | > 25 |
| Cc1cc(C(=O)N[C@@H](Cc2ccccc2)C(=O)C(N)=O)n(-c2ccc(COc3ccccc3)cc2)n1 [Compound 131, (S)—N-(4-amino-3,4-dioxo-1-phenylbutan-2-yl)-3-methyl-1-(4-(phenoxymethyl)phenyl)-1H-pyrazole-5-carboxamide] |  |  |  |  |  | < 3 | < 3 | < 3 | 10 to 25 | > 25 |
| Cn1cc(C(=O)N[C@@H](Cc2ccccc2)C(=O)C(=O)NCC(N)=O)c(-c2ccccc2)n1 [Compound 339, (S)—N-(4-((2-amino-2-oxoethyl)amino)-3,4-dioxo-1-phenylbutan-2-yl)-1-methyl-3-phenyl-1H-pyrazole-4-carboxamide] | < 3 | < 3 | < 3 | > 25 | 10 to 25 |  |  |  |  |  |
| NC(=O)C(=O)C(Cc1c[nH]c2ccccc12)NC(=O)c1nsnc1-c1ccccc1 (stereo not shown) [Compound 532, N-(4-amino-1-(1H-indol-3-yl)-3,4-dioxobutan-2-yl)-4-phenyl-1,2,5-thiadiazole-3-carboxamide] | < 3 | < 3 | < 3 | < 10 | < 10 |  |  |  |  |  |

Second part, the compound after the results:

| IC50 (Human Calpain 1/NS1) [µM] | IC50 (Human Calpain 2/NS1) [µM] | IC50 (Human Calpain 9/NS1) [µM] | IC50 [1, 3] [µM] | IC50 [2] [µM] | IC50 (Human Calpain 1/NS1; Column A) [µM] | IC50 (Human Calpain 2/NS1; Column B) [µM] | IC50 (Human Calpain 9/NS1; Column C) [µM] | IC50 [1, 4] [µM] | IC50 ([2]; Column E) [µM] | SMILES |
| --- | --- | --- | --- | --- | --- | --- | --- | --- | --- | --- |
| < 3 | < 3 | < 3 | 10 to 25 | > 25 |  |  |  |  |  | Cc1cccc(-c2oncc2C(=O)NC(Cc2ccccc2)C(=O)C(N)=O)c1 (stereo not shown) [Compound 560, N-(4-amino-3,4-dioxo-1-phenylbutan-2-yl)-5-(m-tolyl)isoxazole-4-carboxamide] |
| < 3 | < 3 | < 3 | 10 to 25 | 10 to 25 |  |  |  |  |  | COc1cccc(-c2nn(C)cc2C(=O)NC(Cc2ccccc2)C(=O)C(N)=O)c1F (stereo not shown) [Compound 509, N-(4-amino-3,4-dioxo-1-phenylbutan-2-yl)-3-(2-fluoro-3-methoxyphenyl)-1-methyl-1H-pyrazole-4-carboxamide] |
| < 3 | < 3 | < 3 | > 25 | > 25 |  |  |  |  |  | Cc1cccc(-c2nsnc2C(=O)NC(Cc2ccccc2)C(=O)C(N)=O)c1 (stereo not shown) [Compound 325, N-(4-amino-3,4-dioxo-1-phenylbutan-2-yl)-4-(M-tolyl)-1,2,5-thiadiazole-3-carboxamide] |
| < 3 | < 3 | < 3 | > 25 | 10 to 25 |  |  |  |  |  | Cc1nc(-c2ccccc2)c(C(=O)N[C@@H](CCc2ccccc2)C(=O)C(N)=O)o1 [Compound 386, (S)—N-(1-amino-1,2-dioxo-5-phenylpentan-3-yl)-2-methyl-4-phenyloxazole-5-carboxamide] |
| < 3 | < 3 | < 3 | 10 to 25 | < 10 |  |  |  |  |  | NC(=O)C(=O)C(Cc1ccccc1)NC(=O)c1oc(C(F)(F)F)nc1-c1ccccc1F (stereo not shown) [Compound 358, N-(4-amino-3,4-dioxo-1-phenylbutan-2-yl)-4-(2-fluorophenyl)-2-(trifluoromethyl)oxazole-5-carboxamide] |
| < 3 | < 3 | < 3 | > 25 | 10 to 25 |  |  |  |  |  | Cc1cc(C(=O)NC(Cc2ccccc2)C(=O)C(N)=O)n(-c2ccnc(C#N)n2)n1 (stereo not shown) [Compound 437, N-(4-amino-3,4-dioxo-1-phenylbutan-2-yl)-1-(2-cyanopyrimidin-4-yl)-3-methyl-1H-pyrazole-5-carboxamide] |
| < 3 | < 3 | < 3 | 10 to 25 | > 25 |  |  |  |  |  | Cc1nc(-c2ccccc2F)c(C(=O)NC(C=O)Cc2ccccc2)o1 (stereo not shown) [Compound 402, 4-(2-fluorophenyl)-2-methyl-N-(1-oxo-3-phenylpropan-2-yl)oxazole-5-carboxamide] |
